Test results from publication PMC7385619, “A triple action CDK4/6-PI3K-BET inhibitor with augmented cancer cell cytotoxicity” (Cell Discovery, 2020).

Experiments:
Assay in all cases: KINOMEscan assay (Eurofins DiscoverX)
Format in all cases: binding
[1] = biological target: T1, kinome (kinase panel) (Homo sapiens, UniProt O43283); conditions: LZK (Entrez MAP3K13); 1000 nM; read-out: Percent Control
T1 construct: purchased Eurofins DiscoverX

[2] = biological target: T2, kinome (kinase panel) (Homo sapiens, UniProt O60674); conditions: JAK2(JH1domain-catalytic); 1000 nM; read-out: Percent Control
T2 construct: purchased Eurofins DiscoverX

[3] = biological target: T3, kinome (kinase panel) (Homo sapiens, UniProt O75914); conditions: PAK3; 1000 nM; read-out: Percent Control
T3 construct: purchased Eurofins DiscoverX

[4] = biological target: T4, kinome (kinase panel) (Homo sapiens, UniProt P07948); conditions: LYN; 1000 nM; read-out: Percent Control
T4 construct: purchased Eurofins DiscoverX

[5] = biological target: T5, kinome (kinase panel) (Homo sapiens, UniProt P08631); conditions: HCK; 1000 nM; read-out: Percent Control
T5 construct: purchased Eurofins DiscoverX

[6] = biological target: T6, kinome (kinase panel) (Homo sapiens, UniProt P17948); conditions: FLT1; 1000 nM; read-out: Percent Control
T6 construct: purchased Eurofins DiscoverX

[7] = biological target: T7, kinome (kinase panel) (Homo sapiens, UniProt P22607, G697C); conditions: read-out: Percent Control
T7 construct: purchased Eurofins DiscoverX

[8] = biological target: T8, kinome (kinase panel) (Homo sapiens, UniProt P36896); conditions: ACVR1B; 1000 nM; read-out: Percent Control
T8 construct: purchased Eurofins DiscoverX

[9] = biological target: T9, kinome (kinase panel) (Homo sapiens, UniProt P42336, C420R); conditions: read-out: Percent Control
T9 construct: purchased Eurofins DiscoverX

[10] = biological target: T10, kinome (kinase panel) (Homo sapiens, UniProt P42336, H1047Y); conditions: read-out: Percent Control
T10 construct: purchased Eurofins DiscoverX

[11] = biological target: T11, kinome (kinase panel) (Homo sapiens, UniProt P42336, Q546K); conditions: read-out: Percent Control
T11 construct: purchased Eurofins DiscoverX

[12] = biological target: T12, kinome (kinase panel) (Homo sapiens, UniProt P45985); conditions: MEK4 (Entrez MAP2K4); 1000 nM; read-out: Percent Control
T12 construct: purchased Eurofins DiscoverX

[13] = biological target: T13, kinome (kinase panel) (Homo sapiens, UniProt P46734); conditions: MEK3 (Entrez MAP2K3); 1000 nM; read-out: Percent Control
T13 construct: purchased Eurofins DiscoverX

[14] = biological target: T14, kinome (kinase panel) (Homo sapiens, UniProt P50613); conditions: CDK7; 1000 nM; read-out: Percent Control
T14 construct: purchased Eurofins DiscoverX

[15] = biological target: T15, kinome (kinase panel) (Homo sapiens, UniProt P51955); conditions: NEK2; 1000 nM; read-out: Percent Control
T15 construct: purchased Eurofins DiscoverX

[16] = biological target: T16, kinome (kinase panel) (Homo sapiens, UniProt P54756); conditions: EPHA5; 1000 nM; read-out: Percent Control
T16 construct: purchased Eurofins DiscoverX

[17] = biological target: T17, kinome (kinase panel) (Homo sapiens, UniProt Q02763); conditions: TIE2 (TEK); 1000 nM; read-out: Percent Control
T17 construct: purchased Eurofins DiscoverX

[18] = biological target: T18, kinome (kinase panel) (Homo sapiens, UniProt Q13546); conditions: RIPK1; 1000 nM; read-out: Percent Control
T18 construct: purchased Eurofins DiscoverX

[19] = biological target: T19, kinome (kinase panel) (Homo sapiens, UniProt Q13873); conditions: BMPR2; 1000 nM; read-out: Percent Control
T19 construct: purchased Eurofins DiscoverX

[20] = biological target: T20, kinome (kinase panel) (Homo sapiens, UniProt Q5S007, G2019S); conditions: read-out: Percent Control
T20 construct: purchased Eurofins DiscoverX

[21] = biological target: T21, kinome (kinase panel) (Homo sapiens, UniProt Q6XUX3); conditions: RIPK5 (DSTYK); 1000 nM; read-out: Percent Control
T21 construct: purchased Eurofins DiscoverX

[22] = biological target: T22, kinome (kinase panel) (Homo sapiens, UniProt Q86V86); conditions: PIM3; 1000 nM; read-out: Percent Control
T22 construct: purchased Eurofins DiscoverX

[23] = biological target: T23, kinome (kinase panel) (Homo sapiens, UniProt Q86Z02); conditions: HIPK1; 1000 nM; read-out: Percent Control
T23 construct: purchased Eurofins DiscoverX

[24] = biological target: T24, kinome (kinase panel) (Homo sapiens, UniProt Q8NI60); conditions: ADCK3 (Entrez CABC1); 1000 nM; read-out: Percent Control
T24 construct: purchased Eurofins DiscoverX

[25] = biological target: T25, kinome (kinase panel) (Homo sapiens, UniProt Q96PN8); conditions: TSSK3; 1000 nM; read-out: Percent Control
T25 construct: purchased Eurofins DiscoverX

[26] = biological target: T26, kinome (kinase panel) (Homo sapiens, UniProt Q96PY6); conditions: NEK1; 1000 nM; read-out: Percent Control
T26 construct: purchased Eurofins DiscoverX

[27] = biological target: T27, kinome (kinase panel) (Homo sapiens, UniProt Q9BUB5); conditions: MKNK1; 1000 nM; read-out: Percent Control
T27 construct: purchased Eurofins DiscoverX

[28] = biological target: T28, kinome (kinase panel) (Homo sapiens, UniProt Q9BWU1); conditions: CDK11 (Entrez CDK19); 1000 nM; read-out: Percent Control
T28 construct: purchased Eurofins DiscoverX

[29] = biological target: T29, kinome (kinase panel) (Homo sapiens, UniProt Q9HBH9); conditions: MKNK2; 1000 nM; read-out: Percent Control
T29 construct: purchased Eurofins DiscoverX

[30] = biological target: T30, kinome (kinase panel) (Homo sapiens, UniProt Q9UKE5); conditions: TNIK; 1000 nM; read-out: Percent Control
T30 construct: purchased Eurofins DiscoverX

[31] = biological target: T31, kinome (kinase panel) (Homo sapiens, UniProt Q9UQ88); conditions: CDC2L2; 1000 nM; read-out: Percent Control
T31 construct: purchased Eurofins DiscoverX

[32] = biological target: T32, kinome (kinase panel) (Homo sapiens, UniProt Q9UQB9); conditions: AURKC; 1000 nM; read-out: Percent Control
T32 construct: purchased Eurofins DiscoverX

[33] = biological target: T33, kinome (kinase panel) (Plasmodium falciparum, UniProt P61075); conditions: PFPK5(P.falciparum) (Entrez MAL13P1.279); 1000 nM; read-out: Percent Control
T33 construct: purchased Eurofins DiscoverX

T18 sequence (Q13546 whole entry): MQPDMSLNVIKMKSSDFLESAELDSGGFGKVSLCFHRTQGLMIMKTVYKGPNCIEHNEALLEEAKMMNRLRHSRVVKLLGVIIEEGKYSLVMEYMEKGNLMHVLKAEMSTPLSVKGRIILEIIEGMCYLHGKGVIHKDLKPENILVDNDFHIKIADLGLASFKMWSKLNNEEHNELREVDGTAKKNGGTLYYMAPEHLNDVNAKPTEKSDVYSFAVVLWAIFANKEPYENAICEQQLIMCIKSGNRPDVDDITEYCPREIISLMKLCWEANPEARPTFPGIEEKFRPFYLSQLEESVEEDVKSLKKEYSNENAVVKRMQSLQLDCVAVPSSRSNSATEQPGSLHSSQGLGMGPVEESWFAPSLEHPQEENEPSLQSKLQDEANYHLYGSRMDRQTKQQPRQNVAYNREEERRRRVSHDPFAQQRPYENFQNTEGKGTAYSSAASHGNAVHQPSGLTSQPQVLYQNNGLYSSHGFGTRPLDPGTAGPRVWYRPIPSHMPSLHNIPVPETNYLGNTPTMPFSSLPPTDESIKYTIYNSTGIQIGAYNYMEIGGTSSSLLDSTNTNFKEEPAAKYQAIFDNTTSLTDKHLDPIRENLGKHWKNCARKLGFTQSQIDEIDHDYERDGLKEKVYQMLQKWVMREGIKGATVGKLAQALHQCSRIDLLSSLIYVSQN
T5 sequence (P08631 whole entry): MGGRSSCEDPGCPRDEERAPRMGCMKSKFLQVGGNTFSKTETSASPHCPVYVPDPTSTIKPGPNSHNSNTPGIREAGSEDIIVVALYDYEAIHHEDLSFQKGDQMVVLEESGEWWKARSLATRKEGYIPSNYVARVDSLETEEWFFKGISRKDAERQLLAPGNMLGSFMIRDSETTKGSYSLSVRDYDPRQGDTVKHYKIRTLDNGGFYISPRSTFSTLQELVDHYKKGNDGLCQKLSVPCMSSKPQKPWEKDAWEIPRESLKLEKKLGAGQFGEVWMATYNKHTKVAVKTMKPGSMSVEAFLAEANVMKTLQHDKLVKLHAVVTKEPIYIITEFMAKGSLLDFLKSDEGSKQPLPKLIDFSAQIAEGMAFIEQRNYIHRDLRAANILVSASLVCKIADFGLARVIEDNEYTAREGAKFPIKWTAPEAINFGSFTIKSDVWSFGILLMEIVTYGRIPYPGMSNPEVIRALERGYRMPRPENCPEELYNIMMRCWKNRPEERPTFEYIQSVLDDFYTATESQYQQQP
T14 sequence (P50613 whole entry): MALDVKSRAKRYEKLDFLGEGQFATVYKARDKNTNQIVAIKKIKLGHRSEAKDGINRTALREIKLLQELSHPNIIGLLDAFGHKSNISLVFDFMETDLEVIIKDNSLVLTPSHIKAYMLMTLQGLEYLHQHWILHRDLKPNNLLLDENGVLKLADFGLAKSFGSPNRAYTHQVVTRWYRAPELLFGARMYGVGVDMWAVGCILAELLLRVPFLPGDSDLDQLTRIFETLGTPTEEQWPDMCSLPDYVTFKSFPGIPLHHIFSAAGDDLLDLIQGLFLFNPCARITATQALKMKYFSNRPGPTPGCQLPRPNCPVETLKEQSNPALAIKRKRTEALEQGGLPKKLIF
T23 sequence (Q86Z02 whole entry): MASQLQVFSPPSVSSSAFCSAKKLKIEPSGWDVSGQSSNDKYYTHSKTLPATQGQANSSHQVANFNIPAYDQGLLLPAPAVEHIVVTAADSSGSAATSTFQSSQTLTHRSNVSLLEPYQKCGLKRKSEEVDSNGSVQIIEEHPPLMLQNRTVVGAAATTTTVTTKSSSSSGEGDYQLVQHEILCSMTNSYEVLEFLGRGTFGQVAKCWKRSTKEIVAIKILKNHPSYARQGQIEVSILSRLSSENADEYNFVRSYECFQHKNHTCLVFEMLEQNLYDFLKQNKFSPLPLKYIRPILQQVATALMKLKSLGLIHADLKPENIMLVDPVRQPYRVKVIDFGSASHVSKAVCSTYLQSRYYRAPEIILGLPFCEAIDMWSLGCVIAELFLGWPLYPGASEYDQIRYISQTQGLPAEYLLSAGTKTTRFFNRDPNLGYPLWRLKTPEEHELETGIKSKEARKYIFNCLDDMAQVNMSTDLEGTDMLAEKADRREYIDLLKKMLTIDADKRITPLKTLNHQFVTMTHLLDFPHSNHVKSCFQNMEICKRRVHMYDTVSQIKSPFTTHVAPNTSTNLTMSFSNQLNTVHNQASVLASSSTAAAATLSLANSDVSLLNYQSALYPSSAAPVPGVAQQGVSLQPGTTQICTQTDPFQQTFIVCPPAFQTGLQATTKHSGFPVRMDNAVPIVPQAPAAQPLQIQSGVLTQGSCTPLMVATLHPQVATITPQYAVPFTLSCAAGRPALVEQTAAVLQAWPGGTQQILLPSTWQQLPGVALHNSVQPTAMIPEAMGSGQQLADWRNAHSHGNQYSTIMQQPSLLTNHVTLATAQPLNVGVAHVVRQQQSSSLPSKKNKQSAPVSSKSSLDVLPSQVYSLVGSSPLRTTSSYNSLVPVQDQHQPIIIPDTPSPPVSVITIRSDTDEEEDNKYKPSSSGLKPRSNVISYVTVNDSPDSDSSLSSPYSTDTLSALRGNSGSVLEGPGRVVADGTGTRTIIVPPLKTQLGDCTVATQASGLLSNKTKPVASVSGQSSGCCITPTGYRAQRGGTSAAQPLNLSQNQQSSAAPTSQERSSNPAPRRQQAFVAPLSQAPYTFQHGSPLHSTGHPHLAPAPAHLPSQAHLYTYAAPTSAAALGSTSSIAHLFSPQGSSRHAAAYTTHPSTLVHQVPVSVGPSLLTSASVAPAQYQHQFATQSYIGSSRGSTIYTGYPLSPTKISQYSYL
T6 sequence (P17948 27-1338): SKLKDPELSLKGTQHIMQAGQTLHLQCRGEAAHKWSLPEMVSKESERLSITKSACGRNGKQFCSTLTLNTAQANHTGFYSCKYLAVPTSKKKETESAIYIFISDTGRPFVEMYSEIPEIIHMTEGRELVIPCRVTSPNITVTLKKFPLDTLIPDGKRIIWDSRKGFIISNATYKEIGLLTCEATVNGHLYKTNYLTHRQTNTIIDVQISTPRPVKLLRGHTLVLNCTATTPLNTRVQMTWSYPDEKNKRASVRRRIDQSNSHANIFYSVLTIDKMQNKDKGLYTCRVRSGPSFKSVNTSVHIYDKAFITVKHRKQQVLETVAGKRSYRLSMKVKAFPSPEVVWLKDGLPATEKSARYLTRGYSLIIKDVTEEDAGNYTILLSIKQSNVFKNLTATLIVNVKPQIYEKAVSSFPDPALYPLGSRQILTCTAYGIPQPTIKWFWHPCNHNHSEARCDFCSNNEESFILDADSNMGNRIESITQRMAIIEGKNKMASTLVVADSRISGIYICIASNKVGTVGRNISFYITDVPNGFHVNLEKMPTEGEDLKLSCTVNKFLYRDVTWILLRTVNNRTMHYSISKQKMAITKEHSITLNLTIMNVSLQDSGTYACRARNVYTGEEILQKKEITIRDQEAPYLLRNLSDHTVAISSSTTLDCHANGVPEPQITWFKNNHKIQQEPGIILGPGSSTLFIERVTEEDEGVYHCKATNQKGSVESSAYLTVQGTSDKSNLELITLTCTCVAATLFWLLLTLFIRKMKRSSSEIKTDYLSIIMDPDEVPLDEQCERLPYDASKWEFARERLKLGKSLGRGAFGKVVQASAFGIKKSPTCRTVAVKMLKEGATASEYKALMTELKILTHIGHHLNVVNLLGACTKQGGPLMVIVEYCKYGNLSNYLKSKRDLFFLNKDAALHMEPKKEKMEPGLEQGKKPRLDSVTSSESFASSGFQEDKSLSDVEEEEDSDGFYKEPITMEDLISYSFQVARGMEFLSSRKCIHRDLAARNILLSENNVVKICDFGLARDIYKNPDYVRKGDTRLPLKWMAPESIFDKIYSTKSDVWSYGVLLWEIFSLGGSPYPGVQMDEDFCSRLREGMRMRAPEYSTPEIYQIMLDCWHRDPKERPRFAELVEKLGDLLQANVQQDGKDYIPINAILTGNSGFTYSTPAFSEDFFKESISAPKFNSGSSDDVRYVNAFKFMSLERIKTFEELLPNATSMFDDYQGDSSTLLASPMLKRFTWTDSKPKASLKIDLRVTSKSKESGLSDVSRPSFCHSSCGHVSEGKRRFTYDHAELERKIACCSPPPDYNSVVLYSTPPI
T29 sequence (Q9HBH9 whole entry): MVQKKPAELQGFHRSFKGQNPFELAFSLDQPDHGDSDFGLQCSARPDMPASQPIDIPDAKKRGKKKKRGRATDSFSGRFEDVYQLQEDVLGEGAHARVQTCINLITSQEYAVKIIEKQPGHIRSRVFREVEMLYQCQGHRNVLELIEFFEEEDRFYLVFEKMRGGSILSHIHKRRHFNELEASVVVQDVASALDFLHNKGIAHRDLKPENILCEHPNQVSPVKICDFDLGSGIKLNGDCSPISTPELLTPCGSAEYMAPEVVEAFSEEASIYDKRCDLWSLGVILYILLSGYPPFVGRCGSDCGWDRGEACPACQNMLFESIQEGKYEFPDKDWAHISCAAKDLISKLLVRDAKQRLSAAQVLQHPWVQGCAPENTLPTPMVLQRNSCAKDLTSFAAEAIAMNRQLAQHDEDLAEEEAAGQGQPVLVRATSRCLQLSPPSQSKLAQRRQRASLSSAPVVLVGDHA
T28 sequence (Q9BWU1 whole entry): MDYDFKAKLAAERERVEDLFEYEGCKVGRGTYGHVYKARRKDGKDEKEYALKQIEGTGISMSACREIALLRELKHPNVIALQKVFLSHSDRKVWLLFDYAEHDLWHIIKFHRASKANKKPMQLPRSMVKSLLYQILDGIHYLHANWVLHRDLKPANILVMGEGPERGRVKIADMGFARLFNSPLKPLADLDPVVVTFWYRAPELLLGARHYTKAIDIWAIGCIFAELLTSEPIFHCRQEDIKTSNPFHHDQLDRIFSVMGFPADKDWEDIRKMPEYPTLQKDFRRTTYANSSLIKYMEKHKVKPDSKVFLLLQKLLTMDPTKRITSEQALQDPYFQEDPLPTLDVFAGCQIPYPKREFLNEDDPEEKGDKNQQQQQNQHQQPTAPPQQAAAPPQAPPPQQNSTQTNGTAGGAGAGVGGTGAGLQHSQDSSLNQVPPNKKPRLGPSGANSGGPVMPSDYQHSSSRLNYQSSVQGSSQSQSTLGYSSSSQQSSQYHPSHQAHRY

CN(C)C(=O)c1cc2cnc(Nc3ccc(-c4csc5c(=O)cc(N6CCOCC6)oc45)cc3)nc2n1C1CCCC1 [SRX3177]
remaining binding at 1 µM [1]: 48%
remaining binding at 1 µM [2]: 34%
remaining binding at 1 µM [3]: 100%
remaining binding at 1 µM [4]: 94%
remaining binding at 1 µM [5]: 100%
remaining binding at 1 µM [6]: 91%
remaining binding at 1 µM [7]: 89%
remaining binding at 1 µM [8]: 100%
remaining binding at 1 µM [9]: 81%
remaining binding at 1 µM [10]: 34%
remaining binding at 1 µM [11]: 41%
remaining binding at 1 µM [12]: 79%
remaining binding at 1 µM [13]: 76%
remaining binding at 1 µM [14]: 90%
remaining binding at 1 µM [15]: 90%
remaining binding at 1 µM [16]: 100%
remaining binding at 1 µM [17]: 100%
remaining binding at 1 µM [18]: 96%
remaining binding at 1 µM [19]: 78%
remaining binding at 1 µM [20]: 44%
remaining binding at 1 µM [21]: 87%
remaining binding at 1 µM [22]: 78%
remaining binding at 1 µM [23]: 86%
remaining binding at 1 µM [24]: 99%
remaining binding at 1 µM [25]: 100%
remaining binding at 1 µM [26]: 100%
remaining binding at 1 µM [27]: 42%
remaining binding at 1 µM [28]: 80%
remaining binding at 1 µM [29]: 45%
remaining binding at 1 µM [30]: 95%
remaining binding at 1 µM [31]: 93%
remaining binding at 1 µM [32]: 21%
remaining binding at 1 µM [33]: 96%
